Data as given in patent publication EP0296264A1, “Aminopropanol derivatives of 3-(2-hydroxyphenyl)-1-propanone, process for their preparation and medicines containing these compounds” (Helopharm W. Petrik GmbH & Co.KG., priority 1987, dated 1988).
Structures can show the parent of a compound that is named as a salt.

Experiments:
[1] = tested on: Purkinje-Fasern aus Hundeherzen; assay: Electrophysiological study on Purkinje fibres from dog hearts (Vmax, conduction delay); format: cell-based, Hunde; conditions: Canis lupus familiaris, read-out: C20_Vmax
Excerpt: Die antiarrhythmische Wirksamkeit der erfindungsgemäßen Verbindungen wurde sowohl anhand von elektrophysiologischen Studien an Purkinje-Fasern aus Hundeherzen sowie mit Hilfe von Ouabain-induzierten ventrikulären Tachykardien bei Hunden bestimmt. […]
Als zusätzliches Kriterium wurde der Vorzeitigkeitsindex (Prematurity-Faktor) bestimmt, der die erwünschte Wirksamkeit der erfindungsgemäßen Verbindungen bei frühzeitig einfallenden Extrasystolen charakterisiert.

[2] = Effect on contraction force of the heart, guinea pig papillary muscle (negative inotropy); format: cell-based, Meerschweinchen; conditions: concentration that reduces the contraction of the papillary muscle by 20 %, read-out: C20_CF
Excerpt: Die Wirkung auf die Kontraktionskraft des Herzens wurde am Meerschweinchenpapillarmuskel untersucht. Hämodynamische Studien wurden bei gesunden, wie auch akut infarzierten Hunden durchgeführt.

COc1cc(C(=O)CCc2ccccc2OCC(O)CNC(C)C)cc(OC)c1OC (stereo not drawn) [Beispiel 12, 1-(3,4,5-Trimethoxyphenyl)-3-[2ʹ-(2-hydroxy-3-isopropylamino-propoxy)-phenyl]-1-propanon-hydrochlorid]
IC20 [1]: 5.8 µM
IC20 [2]: 18 µM

CCCNCC(O)COc1ccccc1CCC(=O)c1ccc(OC)c(OC)c1 (stereo not drawn) [Beispiel 1, 1-(3,4-Dimethoxyphenyl)-3-[2ʹ-(2-hydroxy-3-n-propylamino-propoxy)-phenyl]-1-propanon-hydrochlorid]
IC20 [1]: 12.5 µM
IC20 [2]: 15 µM

CCCNCC(O)COc1ccccc1CCC(=O)c1cccc(OC)c1 (stereo not drawn) [Beispiel 26, 1-(3-Methoxyphenyl)-3-[2ʹ-(2-hydroxy-3-n-propylamino-propoxy)-phenyl]-1-propanon-hydrochlorid]
IC20 [1]: 1.7 µM
IC20 [2]: 3 µM

COc1cccc(C(=O)CCc2ccccc2OCC(O)CNC(C)(C)C)c1 (stereo not drawn) [Beispiel 27, 1-(3-Methoxyphenyl)-3-[2ʹ-(2-hydroxy-3-tert.-butylamino-propoxy)-phenyl]-1-propanon-hydrochlorid]
IC20 [1]: 1.6 µM
IC20 [2]: 4 µM

CCC(CO)NCC(O)COc1ccccc1CCC(=O)c1ccc(OC)c(OC)c1 (stereo not drawn) [Beispiel 9, 1-(3,4-Dimethoxyphenyl)-3-[2ʹ-(2-hydroxy-3-(1ʺ-hydroxybut-2-ylamino)-propoxy)-phenyl]-1-propanon-oxalat]
IC20 [1]: 10.2 µM
IC20 [2]: 25 µM

Cc1ccc(C(=O)CCc2ccccc2OCC(O)CNC(C)(C)C)cc1 (stereo not drawn) [Beispiel 44, 1-(4-Methylphenyl)-3-[2ʹ-(2-hydroxy-3-tert.-butylamino-propoxy)-phenyl]-1-propanon-hydrochlorid]
IC20 [1]: 2.6 µM
IC20 [2]: 6 µM

COc1ccc(C(=O)CCc2ccccc2OCC(O)CNCC(C)O)cc1OC (stereo not drawn) [Beispiel 7, 1-(3,4-Dimethoxyphenyl)-3-[2ʹ-(2-hydroxy-3-(2ʺ-hydroxypropylamino)-propoxy)-phenyl]-1-propanon-hydrochlorid]
IC20 [1]: 5.7 µM
IC20 [2]: 18 µM

COc1ccc(C(=O)CCc2ccccc2OCC(O)CNC(C)C)cc1OC (stereo not drawn) [Beispiel 4, 1-(3,4-Dimethoxyphenyl)-3-[2ʹ-(2-hydroxy-3-isopropylamino-propoxy)-phenyl]-1-propanon-hydrochlorid]
IC20 [1]: 4.8 µM
IC20 [2]: 22 µM

COc1cc(C(=O)CCc2ccccc2OCC(O)CNC2CCCCC2)cc(OC)c1OC (stereo not drawn) [Beispiel 16, 1-(3,4,5-Trimethoxyphenyl)-3-[2ʹ-(2-hydroxy-3-cyclohexylamino-propoxy)-phenyl]-1-propanon-hydrochlorid]
IC20 [1]: 11.9 µM
IC20 [2]: 9 µM

COc1ccc(C(=O)CCc2ccccc2OCC(O)CN2CCCCC2)cc1OC (stereo not drawn) [Beispiel 6, 1-(3,4-Dimethoxyphenyl)-3-[2ʹ-(2-hydroxy-3-piperidino-propoxy)-phenyl]-1-propanon-hydrochlorid]
IC20 [1]: 11.3 µM
IC20 [2]: 20 µM

CCC(C)(C)NCC(O)COc1ccccc1CCC(=O)c1ccc(OC)c(OC)c1 (stereo not drawn) [Beispiel 2, 1-(3,4-Dimethoxyphenyl)-3-[2ʹ-(2-hydroxy-3-tert.-pentylamino-propoxy)-phenyl]-1-propanon-hydrochlorid]
IC20 [1]: 3.6 µM
IC20 [2]: 8 µM

COc1ccc(C(=O)CCc2ccccc2OCC(O)CNC(C)(C)C)cc1OC (stereo not drawn) [Beispiel 5, 1-(3,4-Dimethoxyphenyl)-3-[2ʹ-(2-hydroxy-3-tert.-butylamino-propoxy)-phenyl]-1-propanon-hydrochlorid]
IC20 [1]: 4.4 µM
IC20 [2]: 12 µM

COc1cccc(C(=O)CCc2ccccc2OCC(O)CNC(C)C)c1 (stereo not drawn) [Beispiel 24, 1-(3-Methoxyphenyl)-3-[2ʹ-(2-hydroxy-3-isopropylamino-propoxy)-phenyl]-1-propanon-hydrochlorid]
IC20 [1]: 1.6 µM
IC20 [2]: 10 µM

CC(C)(C)NCC(O)COc1ccccc1CCC(=O)c1ccccc1 (stereo not drawn) [Beispiel 48, 1-Phenyl-3-[2ʹ-(2-hydroxy-3-tert.-butylamino-propoxy)-phenyl]-1-propanon-hydrochlorid]
IC20 [1]: 1 µM
IC20 [2]: 3 µM

O=C(CCc1ccccc1OCC(O)CN1CCCCC1)c1ccccc1 (stereo not drawn) [Beispiel 47, 1-Phenyl-3-[2ʹ-(2-hydroxy-3-piperidino-propoxy)-phenyl]-1-propanon-hydrochlorid]
IC20 [1]: 0.3 µM
IC20 [2]: 2 µM

COc1ccccc1C(=O)CCc1ccccc1OCC(O)CNC(C)(C)C (stereo not drawn) [Beispiel 38, 1-(2-Methoxyphenyl)-3-[2ʹ-(2-hydroxy-3-tert.-butylamino-propoxy)-phenyl]-1-propanon-hydrochlorid]
IC20 [1]: 1.7 µM
IC20 [2]: 7 µM

COc1ccc(C(=O)CCc2ccccc2OCC(O)CNCCO)cc1OC (stereo not drawn) [Beispiel 8, 1-(3,4-Dimethoxyphenyl)-3-[2ʹ-(2-hydroxy-3-(2ʺ-hydroxyethylamino)-propoxy)-phenyl]-1-propanon-hydrochlorid]
IC20 [1]: 8.3 µM
IC20 [2]: 13 µM

O=C(CCc1ccccc1OCC(O)CNC1CCCCC1)c1ccccc1 (stereo not drawn) [Beispiel 46, 1-Phenyl-3-[2ʹ-(2-hydroxy-3-cyclohexylamino-propoxy)-phenyl]-1-propanon-hydrochlorid]
IC20 [1]: 2.2 µM
IC20 [2]: 2 µM
